Results: patent US10351915B2 (Berg LLC, priority 2009, dated 2019)

Tested on: Pyruvate Dehydrogenase beta (PDH-E1)
Experiment: Western blot, Pyruvate Dehydrogenase Beta levels
Assay type: cell-based, human
Description: The pyruvate kinase blots were stripped by incubating for 30 minutes with methanol, followed by two 10 minute washes with TBS-T, then 30 minutes of incubation with Stripping buffer at 50 deg C., and followed by two washes with 100 ml or more of TBS-T for 30′ each. The 2 blots were scanned in laser scanner to check for complete stripping. After making sure stripping of the antibody and the ECF reagent has worked, the blots were activated with methanol for 5 seconds, washed with water for 5 minutes, and TBST for 15 minutes. The blots are blocked for 1 hour with 5% blocking reagent in TBS-T at room temperature and then washed 3 times with TBS-T (1×-15′; 2×5′ each) and probed with the antibody for Pyruvate Dehydrogenase in 5% BSA (ABNOVA catalog # H00005162-M03) at 1:500 dilutions) overnight at 4 deg C. with shaking. After the overnight incubation with primary antibody for Pyruvate Dehydrogenase, the membranes were washed 3 times with TBS-T (1×-15′; 2×5′ each) and probed with the secondary antibody (antimouse; 1:10,000 dilution) for 1 h on the orbital tilting shaker at room temperature. […]
The levels of LDH and PDH were determined by probing the blots successively with primary antibodies for LDH and PDH, essentially as described above. […]

## COC1=C(OC)C(=O)C(C/C=C(\C)CC/C=C(\C)CC/C=C(\C)CC/C=C(\C)CC/C=C(\C)CC/C=C(\C)CC/C=C(\C)CC/C=C(\C)CC/C=C(\C)CCC=C(C)C)=C(C)C1=O [Q10, Coenzyme Q10]
HepG2, 5g glucose, 48 h, amount 50
  Pyruvate Dehydrogenase Beta Normalized Volume (48 h): 123
HepG2, 22G glucose, 24 h, amount 100
  Pyruvate Dehydrogenase Beta Normalized Volume (24 h): 340
